Experimental data reported in patent US8367695B2, “Condensed tetrahydroquinoline derivative and use thereof for medical purposes” (Mitsubishi Tanabe Pharma Corporation, priority 2007, dated 2013).

Target: T1, Glucocorticoid Receptor (GR), CHO-GRE-Luc #35 cells (Cricetulus griseus, UniProt A0A9J7F8I2)
T1 sequence (A0A9J7F8I2 1-774): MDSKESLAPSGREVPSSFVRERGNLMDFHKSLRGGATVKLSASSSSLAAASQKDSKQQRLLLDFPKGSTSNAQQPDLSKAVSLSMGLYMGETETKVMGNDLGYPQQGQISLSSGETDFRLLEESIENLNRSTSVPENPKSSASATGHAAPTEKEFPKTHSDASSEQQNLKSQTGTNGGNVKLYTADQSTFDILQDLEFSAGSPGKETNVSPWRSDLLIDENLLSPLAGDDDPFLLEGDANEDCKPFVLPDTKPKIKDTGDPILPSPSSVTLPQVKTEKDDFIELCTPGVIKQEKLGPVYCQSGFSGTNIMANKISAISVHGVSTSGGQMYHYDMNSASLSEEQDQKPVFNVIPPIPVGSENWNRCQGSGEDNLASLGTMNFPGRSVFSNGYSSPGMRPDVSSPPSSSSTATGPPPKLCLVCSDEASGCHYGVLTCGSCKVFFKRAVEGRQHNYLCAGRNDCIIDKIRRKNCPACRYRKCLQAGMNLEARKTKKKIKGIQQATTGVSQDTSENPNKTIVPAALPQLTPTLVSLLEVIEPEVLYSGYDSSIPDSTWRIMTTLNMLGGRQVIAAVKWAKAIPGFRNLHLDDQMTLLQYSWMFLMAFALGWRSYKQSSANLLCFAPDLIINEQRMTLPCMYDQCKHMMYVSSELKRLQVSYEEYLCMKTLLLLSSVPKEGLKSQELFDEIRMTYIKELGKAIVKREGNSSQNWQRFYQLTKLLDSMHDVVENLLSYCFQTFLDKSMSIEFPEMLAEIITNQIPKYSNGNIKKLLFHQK
Assay: Glucocorticoid receptor function test using transgenic-recombinant cell (GRE-luciferase)
Format: cell-based
Conditions: not given
Procedure: Glucocorticoid Receptor Function Test Using Transgenic-Recombinant Cell
Transgenic-recombinant cell was prepared by our company (Yokohama, JP). In Hokkaido System Science Co., Ltd., a cis-element wherein two glucocorticoid responsive elements (GRE) present in the […] promoter region of mouse were connected in tandem was produced on order from synthetic DNA. The gene was incorporated into a plasmid vector having a gene encoding luciferase enzyme. The plasmid was incorporated into CHO-K1 cell to give a transfectant. The expression cell (CHO-GRE-Luc #35) produces luciferase instead of the object protein under regulation of a transcription region involved in the expression of the object protein. That is, using the cell, a substance that controls production of the object protein can be screened for by replacing the substance with the luciferase activity. Fetal Bovine Serum (FBS), L-glutamine, penicillin-streptomycin solution, PBS(−), trypsin-EDTA solution, Opti-MEM medium and G418 were obtained from GIBCO (Auckland, N.Z.). A 10 cm dish and DMEM:HAM′S F12 medium were obtained from IWAKI (Chiba, JP). A 96 well white plate was obtained from Corning (Corning, N.Y.). Bright-Glo was obtained from Promega (Madison, US). Dexamethasone was obtained from Sigma Chemicals (St. Louis, Mo.).
CHO-GRE-Luc #35 cells were cultured for several days in a 10 cm dish in a medium (10% FBS/DMEM:HAM'S F12/2.5 mM L-glutamine/50 U/mL penicillin/25 μg/mL streptomycin/500 μg/mL G418). Sub-confluent cells were washed with a suitable amount of PBS(−), 1 ml of Trypsin-EDTA was added and the cells were stood still in a CO2 incubator at 37° C. for 3 min. A 10-fold amount of Opti-MEM medium was added to give a suspension, which was placed in a centrifugal tube and centrifuged (25° C., 1,000 rpm, 5 min). The supernatant was removed, and the cells were suspended in 5 ml of Opti-MEM medium and counted.
Storage solutions (5-20 mM) of the compound were prepared with DMSO. The storage solutions were diluted with DMSO to 1 mM, and further diluted 100-fold with distilled water or Opti-MEM medium to give solutions. The preparations were diluted with 1% DMSO solution to each concentration. As GR agonist, 10 nM dexamethasone was used. 0.2% DMSO was present at the time of the function assay.
The prepared compound solutions (evaluation compound solution or 1% DMSO solution 10 μL+dexamethasone or 1% DMSO solution 10 μL) were added to the plate. After the addition, the place was stood still in a CO2 incubator at 37° C. for about 6 hr. After the reaction, Bright-Glo was added at 20 μL/well, and the mixture was gently shaken and measured by a microplate luminometer (Turner Designs Instrument).
The IC50 value (nM) of the evaluation compound against GR stimulation with dexamethasone was calculated using Prism 3.0 as an analysis software and assuming one-site competition.

Structure (SMILES)	IC50
CC1(C)Nc2c(cc(-c3cccc4nncn34)c3c2CCC3)C(C)(C)C1=O [Example 17, 2,2,4,4-tetramethyl-6-([1,2,4]triazolo[4,3-a]pyridin-5-yl)-2,3,4,7,8,9-hexahydro-1H-cyclopenta[h]quinolin-3-one]	91 nM
C=CCC1(C)C(=O)C(C)(C)Nc2c1cc(-c1cccc3cc[nH]c13)c1c2OCO1 (stereo not shown) [Example 78, 6-allyl-4-(1H-indol-7-yl)-6,8,8-trimethyl-6,7,8,9-tetrahydro-[1,3]dioxolo[4,5-h]quinolin-7-one]	94 nM

Same assay, conditions: against GR stimulation with 10 nM dexamethasone, luciferase, about 6 hr; read-out: GR (IC50: nM)

Structure (SMILES)	IC50
Cc1noc(C)c1-c1cc2c(c3c1CCC3)NC(C)(C)C(=O)C2(C)C [Example 2, 6-(3,5-dimethylisoxazol-4-yl)-2,2,4,4-tetramethyl-2,3,4,7,8,9-hexahydro-1H-cyclopenta[h]quinolin-3-one]	30 nM
Cc1nnn(C)c1-c1cc2c(c3c1CCC3)NC(C)(C)C(=O)C2(C)C [Example 4, 6-(3,5-dimethyl-3H-[1,2,3]triazol-4-yl)-2,2,4,4-tetramethyl-2,3,4,7,8,9-hexahydro-1H-cyclopenta[h]quinolin-3-one]	86 nM
CC1(C)Nc2c(cc(-c3ccnc4cc[nH]c34)c3c2CCC3)C(C)(C)C1=O [Example 13, 2,2,4,4-tetramethyl-6-(1H-pyrrolo[3,2-b]pyridin-7-yl)-2,3,4,7,8,9-hexahydro-1H-cyclopenta[h]quinolin-3-one]	31 nM
CC1(C)Nc2c(cc(-c3cccc4nccn34)c3c2CCC3)C(C)(C)C1=O [Example 14, 6-(imidazo[1,2-a]pyridin-5-yl)-2,2,4,4-tetramethyl-2,3,4,7,8,9-hexahydro-1H-cyclopenta[h]quinolin-3-one]	21 nM
CC1(C)Nc2c(cc(-c3cccc4ncccc34)c3c2CCC3)C(C)(C)C1=O [Example 20, 2,2,4,4-tetramethyl-6-(quinolin-5-yl)-2,3,4,7,8,9-hexahydro-1H-cyclopenta[h]quinolin-3-one]	74 nM
CC1(C)Nc2c(cc(-c3ccnc4ncccc34)c3c2CCC3)C(C)(C)C1=O [Example 21, 2,2,4,4-tetramethyl-6-([1,8]naphthyridin-4-yl)-2,3,4,7,8,9-hexahydro-1H-cyclopenta[h]quinolin-3-one]	53 nM
C=C1C(C)(C)Nc2c(cc(-c3c(C)ncn3C)c3c2CCC3)C1(C)C [Example 29, 6-(3,5-dimethyl-3H-imidazol-4-yl)-2,2,4,4-tetramethyl-3-methylene-2,3,4,7,8,9-hexahydro-1H-cyclopenta[h]quinoline]	69 nM
C=CCC1(C)C(=O)C(C)(C)Nc2c1cc(-c1ccc(O)cc1C)c1c2CCC1 (stereo not shown) [Example 50, 4-allyl-6-(4-hydroxy-2-methylphenyl)-2,2,4-trimethyl-2,3,4,7,8,9-hexahydro-1H-cyclopenta[h]quinolin-3-one]	61 nM
C=CCC1(C)C(=O)C(C)(C)Nc2c1cc(-c1c(C)noc1C)c1c2CCC1 (stereo not shown) [Example 51, 4-allyl-6-(3,5-dimethylisoxazol-4-yl)-2,2,4-trimethyl-2,3,4,7,8,9-hexahydro-1H-cyclopenta[h]quinolin-3-one]	33 nM
C=CCC1(C)C(=O)C(C)(C)Nc2c1cc(-c1cccc3nccn13)c1c2CCC1 (stereo not shown) [Example 57, 4-allyl-6-(imidazo[1,2-a]pyridin-5-yl)-2,2,4-trimethyl-2,3,4,7,8,9-hexahydro-1H-cyclopenta[h]quinolin-3-one]	69 nM
CCC1(C)C(=O)C(C)(C)Nc2c1cc(-c1cccc3nccn13)c1c2CCC1 (stereo not shown) [Example 58, 4-ethyl-6-(imidazo[1,2-s]pyridin-5-yl)-2,2,4-trimethyl-2,3,4,7,8,9-hexahydro-1H-cyclopenta[h]quinolin-3-one]	37 nM
CC#CCC1(C)C(=O)C(C)(C)Nc2c1cc(-c1cccc3nccn13)c1c2CCC1 (stereo not shown) [Example 63, 4-(2-butynyl)-6-(imidazo[1,2-a]pyridin-5-yl)-2,2,4-trimethyl-2,3,4,7,8,9-hexahydro-1H-cyclopenta[h]quinolin-3-one]	48 nM
Cc1noc(C)c1-c1cc2c(c3c1OCO3)NC(C)(C)C(=O)C2(C)C [Example 69, 4-(3,5-dimethylisoxazol-4-yl)-6,6,8,8-tetramethyl-6,7,8,9-tetrahydro-[1,3]dioxolo[4,5-h]quinolin-7-one]	77 nM
CC1(C)Nc2c(cc(-c3cccc4nccn34)c3c2OCO3)C(C)(C)C1=O [Example 71, 4-(imidazo[1,2-a]pyridin-5-yl)-6,6,8,8-tetramethyl-6,7,8,9-tetrahydro-[1,3]dioxolo[4,5-h]quinolin-7-one]	59 nM
CC1(C)Nc2c(cc(-c3cccc4ncccc34)c3c2OCO3)C(C)(C)C1=O [Example 72, 6,6,8,8-tetramethyl-4-(quinolin-5-yl)-6,7,8,9-tetrahydro-[1,3]dioxolo[4,5-h]quinolin-7-one]	40 nM
CC1(C)Nc2c(cc(-c3cccc4nccn34)c3c2OC(F)(F)O3)C(C)(C)C1=O [Example 82, 2,2-difluoro-4-(imidazo[1,2-a]pyridin-5-yl)-6,6,8,8-tetramethyl-6,7,8,9-tetrahydro-[1,3]dioxolo[4,5-h]quinolin-7-one]	111 nM
Cc1noc(C)c1-c1cc2c(c3c1OCC3)NC(C)(C)C(=O)C2(C)C [Example 84, 6-(3,5-dimethylisoxazol-4-yl)-2,2,4,4-tetramethyl-1,2,3,4,8,9-hexahydro-furo[2,3-h]quinolin-3-one]	49 nM
CC1(C)Nc2c(cc(-c3cccc4nccn34)c3c2CCO3)C(C)(C)C1=O [Example 88, 6-(imidazo[1,2-a]pyridin-5-yl)-2,2,4,4-tetramethyl-1,2,3,4,8,9-hexahydro-furo[2,3-h]quinolin-3-one]	66 nM
CC1(C)Nc2c(cc(-c3ccnc4ncccc34)c3c2CCO3)C(C)(C)C1=O [Example 92, 2,2,4,4-tetramethyl-6-([1,8]naphthyridin-4-yl)-1,2,3,4,8,9-hexahydro-furo[2,3-h]quinolin-3-one]	73 nM
Cc1onc(CO)c1-c1cc2c(c3ccoc13)NC(C)(C)C(=O)C2(C)C [Example 94, 6-(3-hydroxymethyl-5-methylisoxazol-4-yl)-2,2,4,4-tetramethyl-1,2,3,4-tetrahydro-furo[2,3-h]quinolin-3-one]	66 nM
CC1(C)Nc2c(cc(-c3cccc4nccn34)c3occc23)C(C)(C)C1=O [Example 98, 6-(imidazo[1,2-a]pyridin-5-yl)-2,2,4,4-tetramethyl-1,2,3,4-tetrahydro-furo[2,3-h]quinolin-3-one]	31 nM
CC1(C)Nc2c(cc(-c3cncc4nccn34)c3occc23)C(C)(C)C1=O [Example 100, 6-(imidazo[1,2-a]pyrazin-5-yl)-2,2,4,4-tetramethyl-1,2,3,4-tetrahydro-furo[2,3-h]quinolin-3-one]	47 nM
CC1(C)Nc2c(cc(-c3cccc4ncccc34)c3occc23)C(C)(C)C1=O [Example 101, 2,2,4,4-tetramethyl-6-(quinolin-5-yl)-1,2,3,4-tetrahydro-furo [2,3-h]quinolin-3-one]	37 nM
